In patent US20260355212A1 (priority 2022, published 2026):
Where two headings read alike, the source gives them in different places.

What was measured:
HCoV-NL63 Mpro = HCoV-NL63 Mpro (Human coronavirus NL63, UniProt P0C6X5); test: HCoV-NL63 Mpro enzymatic inhibition assay (fluorescence); type: biochemical
Experimental: (§1) The hCoV Mpro are cloned, expressed in E. coli and purified by WuXi AppTec Co., Ltd. The substrate are synthesized by Genscript Biotech.
(§2) Compounds are 3 fold serially diluted for 10 doses and added to an assay plate (384w format) using ECHO, in duplicate wells. The test concentration of test compounds is defined by sponsor. […] For no inhibition control (ZPE, zero percent effect), DMSO is added.
(§3) 25 μL of Mpro proteins are added to the assay plates containing compounds, respectively, using Multidrop. The compounds and Mpro proteins are pre-incubated at room temperature for 30 min. Then 5 µL of Mpro substrates are added to the related assay plates, respectively. Each activity testing point has a relevant background control to normalize the fluorescence interference of compound.
(§4) After 60 min incubation at 30° C., the fluorescence signal (RFU) is detected using a microplate reader M2e (SpectraMax) at Ex/Em=340 nm/490 nm.
(§5) The inhibition activity is calculated using the formula below, IC50 values will be calculated using the Inhibition % data.
(§6) Inhibition %=[(CPD−BGCPD)−(ZPE−BGZPE)/(HPE−BGHPE)−(ZPE−BGZPE)]×[…] • CPD: Signal of test compounds wells, containing compound+enzyme+substrate. • ZPE: Average of signals of zero percent effective control wells, containing enzyme+substrate, no compound. • HPE: Average of signals of hundred percent effect control wells, containing GC376+enzyme+substrate. • BG: Compound background control wells, containing compound+substrate, no enzyme
(§7) IC50 values of compounds are calculated with the GraphPad Prism software using the nonlinear regression model of log(inhibitor) vs. response—Variable slope (four parameters).

SARS-CoV-1 Mpro = SARS-CoV-1 Mpro (Severe acute respiratory syndrome coronavirus, UniProt P0C6X7); test: biochemical
HCoV-HKU1 Mpro = HCoV-HKU1 Mpro (Human coronavirus HKU1, UniProt P0C6X2); test: HCoV-HKU1 Mpro enzymatic inhibition assay (fluorescence); type: biochemical
Experimental: as §1, §2, §3, §4, §5, §6, §7

HCoV-229E Mpro = HCoV-229E Mpro (Human coronavirus 229E, UniProt P0C6X1); test: HCoV-229E Mpro enzymatic inhibition assay (fluorescence); type: biochemical
Experimental: as §1, §2, §3, §4, §5, §6, §7

SARS-CoV-2 Mpro = SARS-CoV-2 Mpro (Severe acute respiratory syndrome coronavirus 2, UniProt P0DTD1); test: SARS-CoV-2 Mpro enzymatic inhibition assay (fluorescence); type: biochemical
Experimental: as §1
Compounds are 3 fold serially diluted for 10 doses and added to an assay plate (384w format) using ECHO, in duplicate wells. The test concentration of test compounds is defined by sponsor.
25 μL of Mpro proteins are added to the assay plates containing compounds, respectively, using Multidrop. The compounds and Mpro proteins are pre-incubated at room temperature for 30 min. Then 5 µL of Mpro substrates are added to the related assay plates, respectively.
as §4, §5, §7

HCoV-OC43 Mpro = HCoV-OC43 Mpro (Human coronavirus OC43, UniProt P0C6X6); test: HCoV-OC43 Mpro enzymatic inhibition assay (fluorescence); type: biochemical
Experimental: as §1, §2, §3, §4, §5, §6, §7

MERS Mpro = MERS Mpro (Middle East respiratory syndrome-related coronavirus, UniProt K9N7C7); test: biochemical; set-up: species or system MERS-CoV
MERS Mpro, sequence (K9N7C7 3248-3553 limits assumed): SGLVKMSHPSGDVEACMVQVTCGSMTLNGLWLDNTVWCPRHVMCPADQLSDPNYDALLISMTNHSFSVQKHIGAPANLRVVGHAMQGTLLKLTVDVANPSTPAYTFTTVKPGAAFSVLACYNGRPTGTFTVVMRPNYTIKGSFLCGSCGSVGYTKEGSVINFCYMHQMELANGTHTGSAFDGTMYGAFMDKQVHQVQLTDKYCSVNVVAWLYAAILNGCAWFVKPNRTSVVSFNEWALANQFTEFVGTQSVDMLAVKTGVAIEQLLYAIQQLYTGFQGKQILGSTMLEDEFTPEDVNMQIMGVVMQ

HCoV-NL63 Mpro, sequence (P0C6X5 2940-3242 limits assumed): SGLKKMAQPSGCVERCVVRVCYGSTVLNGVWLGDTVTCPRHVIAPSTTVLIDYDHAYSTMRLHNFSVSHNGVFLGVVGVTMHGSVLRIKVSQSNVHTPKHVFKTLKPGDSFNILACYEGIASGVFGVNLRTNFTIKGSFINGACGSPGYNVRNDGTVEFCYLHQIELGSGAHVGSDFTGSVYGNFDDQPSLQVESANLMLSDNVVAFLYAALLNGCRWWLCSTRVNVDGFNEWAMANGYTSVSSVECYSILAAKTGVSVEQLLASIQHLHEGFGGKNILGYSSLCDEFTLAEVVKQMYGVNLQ
HCoV-OC43 Mpro, sequence (P0C6X6 3247-3549 limits assumed): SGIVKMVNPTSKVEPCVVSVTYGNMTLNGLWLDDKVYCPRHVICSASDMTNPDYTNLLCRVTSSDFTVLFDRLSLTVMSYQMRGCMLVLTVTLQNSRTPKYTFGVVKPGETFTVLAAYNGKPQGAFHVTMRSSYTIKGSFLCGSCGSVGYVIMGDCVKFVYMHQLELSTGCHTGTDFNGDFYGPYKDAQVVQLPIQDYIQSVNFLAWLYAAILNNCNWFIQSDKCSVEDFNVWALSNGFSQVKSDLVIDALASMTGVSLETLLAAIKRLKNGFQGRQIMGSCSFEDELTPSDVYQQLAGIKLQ
HCoV-229E Mpro, sequence (P0C6X1 2966-3267 limits assumed): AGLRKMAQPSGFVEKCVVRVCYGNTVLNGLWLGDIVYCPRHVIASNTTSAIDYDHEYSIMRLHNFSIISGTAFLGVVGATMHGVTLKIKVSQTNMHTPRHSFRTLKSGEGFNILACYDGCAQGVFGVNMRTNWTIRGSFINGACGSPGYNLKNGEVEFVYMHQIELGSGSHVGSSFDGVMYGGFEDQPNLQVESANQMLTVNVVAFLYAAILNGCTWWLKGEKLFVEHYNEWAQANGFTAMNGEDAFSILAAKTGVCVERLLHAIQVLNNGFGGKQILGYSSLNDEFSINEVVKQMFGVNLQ
HCoV-HKU1 Mpro, sequence (P0C6X2 3335-3637 limits assumed): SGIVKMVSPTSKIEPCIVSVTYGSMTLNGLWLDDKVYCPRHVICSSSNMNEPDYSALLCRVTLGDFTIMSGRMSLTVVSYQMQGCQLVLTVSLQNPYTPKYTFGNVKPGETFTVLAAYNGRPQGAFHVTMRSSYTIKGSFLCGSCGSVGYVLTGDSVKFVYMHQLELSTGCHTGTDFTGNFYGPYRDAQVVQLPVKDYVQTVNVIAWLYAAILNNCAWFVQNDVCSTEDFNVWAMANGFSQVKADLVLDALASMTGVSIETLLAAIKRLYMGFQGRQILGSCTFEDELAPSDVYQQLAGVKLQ

| Structure (SMILES) | IC50 (HCoV-NL63 Mpro) | IC50 (SARS-CoV-1 Mpro) | IC50 (HCoV-HKU1 Mpro) | IC50 (HCoV-229E Mpro) | IC50 (SARS-CoV-2 Mpro) | IC50 (HCoV-OC43 Mpro) | IC50 (MERS Mpro) | IC50 (SARS-CoV-2 Mpro; mean, 25 nM protein, 25 μM substrate, 30 min pre-incubation, 60 min at 30° C., read-out: Mpro_SARS-CoV-2 mean IC50) |
| --- | --- | --- | --- | --- | --- | --- | --- | --- |
| Cc1ccc2cc(C(=O)N3C[C@H]4[C@@H]([C@H]3C(=O)N[C@H](C=O)C[C@@H]3CCNC3=O)C4(C)C)[nH]c2c1C [Compound 18, (1R,2S,5S)-3-(6,7-dimethyl-1H-indole-2-carbonyl)-6,6-dimethyl-N—((S)-1-oxo-3-((S)-2-oxopyrrolidin-3-yl)propan-2-yl)-3-azabicyclo[3.1.0]hexane-2-carboxamide] | 0.0761 µM | 0.0336 µM | 0.0331 µM | 0.0388 µM | 0.0153 µM | 0.0659 µM | 0.301 µM |  |
| CC1(C)[C@@H]2[C@@H](C(=O)N[C@H](C=O)C[C@@H]3CCNC3=O)N(C(=O)c3cc4ccc(F)cc4[nH]3)C[C@@H]21 [Compound 19, (1R,2S,5S)-3-(6-fluoro-1H-indole-2-carbonyl)-6,6-dimethyl-N—((S)-1-oxo-3-((S)-2-oxopyrrolidin-3-yl)propan-2-yl)-3-azabicyclo[3.1.0]hexane-2-carboxamide] | 0.0373 µM | 0.0401 µM | 0.018 µM | 0.0274 µM | 0.0154 µM | 0.0497 µM | 0.188 µM |  |
| CC1(C)[C@@H]2[C@@H](C(=O)N[C@H](C=O)C[C@@H]3CCNC3=O)N(C(=O)c3cc4c(F)cc(F)cc4[nH]3)C[C@@H]21 [Compound 20, (1R,2S,5S)-3-(4,6-difluoro-1H-indole-2-carbonyl)-6,6-dimethyl-N—((S)-1-oxo-3-((S)-2-oxopyrrolidin-3-yl)propan-2-yl)-3-azabicyclo[3.1.0]hexane-2-carboxamide] | 0.0373 µM | 0.0404 µM | 0.0164 µM | 0.0396 µM | 0.0155 µM | 0.055 µM | 0.274 µM |  |
| CC1(C)[C@@H]2[C@@H](C(=O)N[C@H](C=O)C[C@@H]3CCNC3=O)N(C(=O)c3cc4ccc(Cl)c(F)c4[nH]3)C[C@@H]21 [Compound 21, (1R,2S,5S)-3-(6-chloro-7-fluoro-1H-indole-2-carbonyl)-6,6-dimethyl-N—((S)-1-oxo-3-((S)-2-oxopyrrolidin-3-yl)propan-2-yl)-3-azabicyclo[3.1.0]hexane-2-carboxamide] | 0.0577 µM | 0.0276 µM | 0.038 µM | 0.0222 µM | 0.0157 µM | 0.0594 µM | 0.234 µM |  |
| CC1(C)[C@@H]2[C@@H](C(=O)N[C@H](C=O)C[C@@H]3CCNC3=O)N(C(=O)CC3CCCC(F)(F)C3)C[C@@H]21 (stereo partly drawn) [Compound 22, (1R,2S,5S)-3-(2-(3,3-difluorocyclohexyl)acetyl)-6,6-dimethyl-N—((S)-1-oxo-3-((S)-2-oxopyrrolidin-3-yl)propan-2-yl)-3-azabicyclo[3.1.0]hexane-2-carboxamide] | 0.0371 µM | 0.0277 µM | 0.0105 µM | 0.0244 µM | 0.0158 µM | 0.0284 µM | 0.123 µM |  |
| CC1(C)[C@@H]2[C@@H](C(=O)N[C@H](C=O)C[C@@H]3CCNC3=O)N(C(=O)Cc3ccccc3)C[C@@H]21 [Compound 23, (1R,2S,5S)-6,6-dimethyl-N—((S)-1-oxo-3-((S)-2-oxopyrrolidin-3-yl)propan-2-yl)-3-(2-phenylacetyl)-3-azabicyclo[3.1.0]hexane-2-carboxamide] | 0.0497 µM | 0.0233 µM | 0.0226 µM | 0.0338 µM |  | 0.0305 µM | 0.126 µM | 0.0158 µM |
| CC1(C)[C@@H]2[C@@H](C(=O)N[C@H](C=O)C[C@@H]3CCNC3=O)N(C(=O)c3cc4cc(F)ccc4[nH]3)C[C@@H]21 [Compound 24, (1R,2S,5S)-3-(5-fluoro-1H-indole-2-carbonyl)-N-[(1S)-1-formyl-2-[(3S)-2-oxopyrrolidin-3-yl]ethyl]-6,6-dimethyl-3-azabicyclo[3.1.0]hexane-2-carboxamide] | 0.0717 µM | 0.0736 µM | 0.0318 µM | 0.0323 µM | 0.0166 µM | 0.0605 µM | 0.271 µM |  |
